Measurements reported in US20130101580A1, “COMPOSITIONS AND METHODS FOR PROLONGING LIFESPAN” (priority 2011, published 2013).
Marks after values point to notes of the source that are not given here.

What was measured:
[1] = test system: Drosophila melanogaster (Oregon); experiment: Life span of wild type Oregon-R flies with aMT or 5MT added to the nutrition medium; format: in vivo; details: for Life span (days), Mean / Life span (days), Median / Life span (days), Maximum: aMT (18.3 mM) and 5MT (18.3 mM) in medium; for Increase of maximum life span / Increase of mean survival time: vs control
Protocol: Wild type Oregon-R flies were maintained at 23° C. on a standard Drosophila medium consisting of sugar, yeast, agar and semolina. Two concentrations of aMT (alpha-dl-methyl tryptophan) (0.46 mM or 18.3 mM) or 5MT (5-methyl-dl-tryptophan) (2.4 mM and 18.mM) (Sigma Aldrich Chemical Co, USA) were added to nutrition medium of experimental groups. To examine lifespan, 1-day old adult flies were collected and then regularly transferred to fresh medium every 3-4 days. The number of dead flies was recorded at the time of transfer.
The data were analyzed using two ways ANOVA and Log rank test.

[2] = test system: Drosophila melanogaster (Oregon); experiment: as above; format: in vivo

| SMILES | Life span (days), Mean ([1]; FEMALE flies) | Life span (days), Median ([1]; FEMALE flies) | Life span (days), Mean ([1]; MALE flies) | Life span (days), Median ([1]; MALE flies) | Effect on life span of Drosophila ([1]; aMT 0.46 mM in medium) | Increase of maximum life span ([1]; female flies, aMT 18.3 mM, p<0.0001) | Female flies surviving longer than 53 days (maximum life span of female control group) ([1]; female flies, high concentration of aMT (18.3 mM), 13 out of 51) | Increase of mean survival time ([1]; females, aMT 18.3 mM, p<0.0001, two way ANOVA) | Increase of maximum life span ([1]; male flies, aMT 18.3 mM, p<0.0001) | Effect on life span of male flies ([1]; male flies, high concentration (18.3 mM)) | Male flies surviving longer than 40 days (maximum life span of 72 out of 73 control flies) ([1]; male flies, high concentration of aMT (18.3 mM), 29 out of 40) | Increase of mean survival time ([1]; males, aMT 18.3 mM, p<0.0001, two way ANOVA) | Life span (days), Maximum ([1]; FEMALE flies) | Life span (days), Maximum ([1]; MALE flies) | Increase of maximum life span ([1]; female flies, 5MT 34.5 mM, p<0.0001, two way ANOVA) | Female flies surviving longer than 53 days (maximum life span of female control group) ([1]; female flies, high concentrations of 5MT (34.5 mM), 11 out of 58) | Effect on life span of Drosophila ([2]; 5MT 2.3 mM in medium) | Increase of mean survival time ([2]; female flies, 5MT 34.5 mM, vs control, p<0.0001, two way ANOVA) | Longest survival of treated female flies ([2]; female flies, high concentrations of 5MT (34.5 mM)) |
| --- | --- | --- | --- | --- | --- | --- | --- | --- | --- | --- | --- | --- | --- | --- | --- | --- | --- | --- | --- |
| C[C@](N)(Cc1c[nH]c2ccccc12)C(=O)O (racemic) [aMT, alpha-dl-methyl tryptophan] | 51.7* days | 50 days | 40.2* days | 43* days | did not affect | 23% | 25% | 27% | 21% | did not affect | 60% | 42% |  |  |  |  |  |  |  |
| Cc1ccc2[nH]cc(CC(N)C(=O)O)c2c1 (racemic) [5MT, 5-methyl-dl-tryptophan] | 48.5* days | 50 days | 26.7 days | 30 days |  |  |  |  |  |  |  |  | 65* days | 40 days | 23% | 19% | did not affect | 21% | up to 65 days |
